The values that follow come from US5082848A, “Substituted 4-aminoquinoline derivatives as gastric acid secretion inhibitors” (Smith Kline & French Laboratories, Ltd., priority 1988, dated 1992).

The target of experiment [1] is T1, H^+ K^+ ATPase (Sus scrofa, UniProt P19156).
T1 construct: Lyophilised gastric vesicles were prepared from pig fundic mucosa; from tissue; host or cells: pig fundic (gastric) mucosa, lyophilised gastric vesicles
In words: K^+ -stimulated ATPase activity in lyophilised gastric vesicles. Format: biochemical. To be noted: lyophilised gastric vesicles from pig fundic mucosa, 37° C., pH 7.0, 30 minutes. The protocol:
The effects of a single high concentration (100 μM) of a compound of structure (I) on K^+ -stimulated ATPase activity in lyophilised gastric vesicles was determined. Preferred compounds of structure (I) were also tested over a range of concentrations to determine IC50 values.
Lyophilised gastric vesicles were prepared from pig fundic mucosa after the method of Keeling et. al. (Biochem. Pharmacol., 34, 2967, 1985).
K^+ -stimulated ATPase activity was determined at 37° C. in the presence of the following: 10 mM Pipes/Tris buffer pH 7.0, 2 mM MgSO4, 1 mM KCl, 2 mM Na2 ATP and 3-6 μg protein/ml lyophilised gastric vesicles. After incubation for 30 minutes, the inorganic phosphate hydrolysed from ATP was determined by the method of Yoda and Hokin (Biochem. Biophys. Res. Commun. 40, 880, 1970).
Compounds of structure (I) were dissolved in dimethylsulphoxide which up to the highest concentration
used had no effect on K^+ -stimulated ATPase activity.
The effect of the highest concentration of each compound of structure (I) on the recovery of a standard amount of inorganic phosphate was also determined.

Experiment [2] concerns pentagastrin stimulated gastric acid secretion. Description: Rat Lumen Perfused Stomach (pentagastrin stimulated gastric acid secretion). To be noted: i.v. administration, 10 μmole/kg. The format is in vivo. An excerpt:
B. Rat Lumen Perfused Stomach (pentagastrin stimulated gastric acid secretion).
Using a modification of the procedure described by Ghosh & Schild (Br. J. Pharmacology, 13, 54, 1958), the compounds of the following examples were found on i.v. administration at a concentration of 10 μmole/kg to cause an inhibition of pentagastrin stimulated gastric acid secretion as follows: […]

T1 sequence (P19156 2-1034 limits assumed): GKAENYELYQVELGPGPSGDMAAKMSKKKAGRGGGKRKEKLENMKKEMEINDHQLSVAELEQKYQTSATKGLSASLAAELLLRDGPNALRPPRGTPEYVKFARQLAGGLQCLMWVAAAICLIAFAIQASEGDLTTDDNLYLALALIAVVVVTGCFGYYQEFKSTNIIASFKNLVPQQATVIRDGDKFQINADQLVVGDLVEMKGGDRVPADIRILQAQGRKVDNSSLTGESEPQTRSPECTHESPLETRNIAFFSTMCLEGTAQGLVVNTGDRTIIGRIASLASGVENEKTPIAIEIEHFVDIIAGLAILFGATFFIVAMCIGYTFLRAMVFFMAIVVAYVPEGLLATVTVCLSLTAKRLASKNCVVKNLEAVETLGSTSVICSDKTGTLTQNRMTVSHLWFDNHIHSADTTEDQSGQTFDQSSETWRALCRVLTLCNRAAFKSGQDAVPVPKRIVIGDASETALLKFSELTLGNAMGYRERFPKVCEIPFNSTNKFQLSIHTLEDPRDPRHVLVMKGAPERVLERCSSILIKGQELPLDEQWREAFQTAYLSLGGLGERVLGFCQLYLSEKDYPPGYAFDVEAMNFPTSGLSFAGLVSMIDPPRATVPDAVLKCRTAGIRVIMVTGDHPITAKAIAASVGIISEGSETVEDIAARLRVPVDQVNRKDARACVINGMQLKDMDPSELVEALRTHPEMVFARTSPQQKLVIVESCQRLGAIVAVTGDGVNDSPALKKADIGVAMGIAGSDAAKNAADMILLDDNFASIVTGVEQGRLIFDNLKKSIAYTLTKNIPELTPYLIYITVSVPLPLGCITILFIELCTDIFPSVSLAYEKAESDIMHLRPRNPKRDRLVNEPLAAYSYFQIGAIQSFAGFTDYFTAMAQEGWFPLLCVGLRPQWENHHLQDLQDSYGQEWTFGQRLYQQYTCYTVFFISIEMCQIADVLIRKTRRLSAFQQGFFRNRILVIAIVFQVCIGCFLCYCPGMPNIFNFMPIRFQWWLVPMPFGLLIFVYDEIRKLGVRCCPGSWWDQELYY
T1 sequence (P18434 whole entry partner): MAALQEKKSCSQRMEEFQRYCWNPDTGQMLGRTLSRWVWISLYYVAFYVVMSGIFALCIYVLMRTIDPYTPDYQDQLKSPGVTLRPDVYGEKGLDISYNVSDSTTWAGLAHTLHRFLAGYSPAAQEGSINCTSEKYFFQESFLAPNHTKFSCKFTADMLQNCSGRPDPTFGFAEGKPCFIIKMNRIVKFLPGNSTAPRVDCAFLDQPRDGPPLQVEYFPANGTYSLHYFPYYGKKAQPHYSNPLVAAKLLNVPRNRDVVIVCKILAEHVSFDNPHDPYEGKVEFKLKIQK

One may read the IC50 as the concentration at which inhibition is half-maximal. In the case of `CCCC(=O)c1cnc2c(OC)cccc2c1Nc1ccccc1COC` [Example 2, 3-butyryl-4-(2-methoxymethylphenylamino)-8-methoxyquinoline], the IC50 in experiment [1] was found to be 5.5 µM. Further, in experiment [2], the “% inhibition of pentagastrin stimulated gastric acid secretion” value (“% inhibition” below) came out at 43%. The matching figures for `CCCC(=O)c1cnc2c(OC)cccc2c1Nc1cc(CO)ccc1C` [Example 7, 3-butyryl-4-(5-hydroxymethyl-2-methylphenylamino)-8-methoxyquinoline]: 10.2 µM and 25%. Molecule `CCCC(=O)c1cnc2c(OC)cccc2c1Nc1cccc(CO)c1C` [Example 6, 3-butyryl-4-(3-hydroxymethyl-2-methylphenylamino)-8-methoxyquinoline] came in with an IC50 in experiment [1] of 6 µM. In experiment [1], `CCCC(=O)c1cnc2c(OC)cccc2c1Nc1ccc2c(c1)OCO2` [Example 3, 3-butyryl-4-(3,4-(methylenedioxy)phenylamino)-8-methoxyquinoline] had an IC50 of 3.6 µM. Also, the “% inhibition” value in experiment [2] is reported as 20%. Molecule `CCCC(=O)c1cnc2c(OC)cccc2c1Nc1ccccc1CO` [Example 1, 3-butyryl-4-(2-(hydroxymethyl)phenylamino)-8-methoxyquinoline] registered an IC50 in experiment [1] of 12 µM. In addition, the “% inhibition” value in experiment [2] is reported as 33%. Regarding `CCCC(=O)c1cnc2c(OC)cccc2c1Nc1c(C)cc2c(c1C)OCO2` [Example 5, 3-butyryl-4-(3,4-methylenedioxy-2,6-dimethylphenylamino)-8-methoxyquinoline], the IC50 in experiment [1] was 2.7 µM. Besides, in experiment [2], the “% inhibition” value is 44%. For the molecule `CCCC(=O)c1cnc2c(OC)cccc2c1Nc1ccc(CO)cc1` [Example 4, 3-butyryl-4-(4-hydroxymethylphenylamino)-8-methoxyquinoline], the “% inhibition” value in experiment [2] is 51%.
